Among the test systems are SF-539 CNS; M19-MEL melanoma; OVCAR-4 ovarian; RPMI-8226 leukemia; NCI-H460 lung; SN12C renal; SNB-78 CNS; SNB-19 CNS; HS 578T breast; NCI/ADR-RES ovarian.
Holding throughout (assay): inhibition of tumour cell growth, NCI panel, 48 h

Structures are written as SMILES.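 Cultured in 96-well plates, cells were exposed to test compound for 48 hours across five concentrations. GI50: concentration for 50% inhibition of growth. TGI is the concentration that stops growth completely.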

Turning to `Cc1cc2c(c(C#N)c1C)NC(=O)C(CC(=O)O)C2=O` (stereo unspecified), the TGI with SF-539 CNS, in the assay on M19-MEL melanoma, with OVCAR-4 ovarian, in the assay on RPMI-8226 leukemia, in the assay with NCI-H460 lung and in the assay with SN12C renal was above 100 µM throughout. The TGI with SNB-78 CNS was above 100 µM.

Regarding `COc1ccc2nc(NC(=O)C(=O)CC(=O)c3ccc(Cl)cc3)sc2c1`, the TGI in the assay with SF-539 CNS was 98.4 µM; in the assay on M19-MEL melanoma, above 100 µM; in the assay with OVCAR-4 ovarian, 53.2 µM; with NCI-H460 lung it was above 100 µM; in the assay with SN12C renal, above 100 µM; with SNB-19 CNS, above 100 µM. In the assay with SNB-78 CNS, the TGI was above 100 µM.

For `CCCCC(=O)[O-].N.N.N.N.N.[Co+3].[O-][Cl+3]([O-])([O-])[O-]`, the GI50 in the assay on SF-539 CNS, in the assay on OVCAR-4 ovarian, in the assay with RPMI-8226 leukemia, in the assay with NCI-H460 lung, with SN12C renal and in the assay on SNB-19 CNS was above 100 µM in each case. Besides, the GI50 in the assay with SNB-78 CNS is above 100 µM. In addition, the TGI in the assay with SF-539 CNS, in the assay with OVCAR-4 ovarian, in the assay on RPMI-8226 leukemia, in the assay on NCI-H460 lung, in the assay with SN12C renal and with SNB-19 CNS was above 100 µM in each case. Besides, the TGI in the assay on SNB-78 CNS was above 100 µM.

With `CC(=O)Oc1cccc2c1C(=O)C(Br)(Br)CCC2`, the TGI with SF-539 CNS came out at 23.1 µM; in the assay with M19-MEL melanoma, 24.6 µM; in the assay with HS 578T breast, 39.7 µM; in the assay on OVCAR-4 ovarian it was 3.67 µM; in the assay with RPMI-8226 leukemia, 7.34 µM; in the assay on NCI-H460 lung it was 43.6 µM. Besides, the results for the TGI in the assay with SN12C renal, with SNB-19 CNS and in the assay on SNB-78 CNS were 19.7 µM, 25.2 µM and 33.8 µM, respectively.

Regarding `Cc1c(C(=O)CC(=O)C(=O)Nc2cccc(C(F)(F)F)c2)[n+](=O)c2ccccc2n1[O-]`, the TGI in the assay with SF-539 CNS worked out at 8.58 µM; in the assay on M19-MEL melanoma, 3.69 µM; in the assay with OVCAR-4 ovarian, 13.3 µM; in the assay on RPMI-8226 leukemia, 11.7 µM; in the assay with NCI-H460 lung it was 8.5 µM; in the assay on SN12C renal it was 11 µM. Further, the TGI with SNB-19 CNS turned out to be 19.9 µM; with SNB-78 CNS, 25.2 µM.

For `N#CC1(c2nc3ccccc3o2)C(=O)C(=O)N(c2ccc(Cl)c(Cl)c2)C(=O)C1=O`, the TGI with OVCAR-4 ovarian, in the assay on RPMI-8226 leukemia, in the assay with NCI-H460 lung, with SN12C renal, in the assay on SNB-19 CNS and in the assay on SNB-78 CNS was above 100 µM throughout.

Consider `O[C@]12CCCC[C@H]1CCC2`, for which the TGI in the assay on SF-539 CNS, in the assay with M19-MEL melanoma, with OVCAR-4 ovarian, in the assay on RPMI-8226 leukemia, in the assay on NCI-H460 lung and in the assay with SN12C renal was above 100 µM in each case. The TGI with SNB-19 CNS and in the assay with SNB-78 CNS was above 100 µM throughout.

On to `CC[O-].CC[O-].O=Nc1ccc2cc([O-])ccc2c1.O=Nc1ccc2cc([O-])ccc2c1.[Ti+4]`, for which the GI50 in the assay with SF-539 CNS was 1.82 µM; in the assay on M19-MEL melanoma it was 0.728 µM; in the assay on OVCAR-4 ovarian, 1.76 µM; in the assay on RPMI-8226 leukemia, 1.51 µM; with NCI-H460 lung it was 3.1 µM; in the assay on SN12C renal it was 1.74 µM. The GI50 in the assay with SNB-19 CNS was 3.61 µM; with SNB-78 CNS it was 2.79 µM. The TGI with SF-539 CNS was 3.28 µM; in the assay on M19-MEL melanoma, 3.25 µM; in the assay with OVCAR-4 ovarian, 3.2 µM; in the assay on RPMI-8226 leukemia it was 4.6 µM; in the assay on NCI-H460 lung, above 100 µM; in the assay with SN12C renal, 3.16 µM. This compound also displayed a TGI in the assay on SNB-19 CNS of 13.2 µM.

As to `COc1ccc(C(=O)c2cc(OC)c(OC)c(OC)c2)cc1O`, the GI50 in the assay with SF-539 CNS is 0.0112 µM; in the assay with NCI/ADR-RES ovarian, 0.0118 µM; in the assay on HS 578T breast, 0.028 µM; in the assay with OVCAR-4 ovarian, 0.61 µM; in the assay with RPMI-8226 leukemia, 0.0342 µM; with NCI-H460 lung, 0.0373 µM. In addition, the GI50 is 0.0668 µM in the assay with SN12C renal and 0.268 µM in the assay on SNB-19 CNS. The TGI is 0.0557 µM in the assay with SF-539 CNS; above 100 µM with NCI/ADR-RES ovarian; above 100 µM in the assay with HS 578T breast; above 100 µM in the assay on OVCAR-4 ovarian; above 64.9 µM with RPMI-8226 leukemia; above 100 µM in the assay with NCI-H460 lung. Moreover, the TGI with SN12C renal and in the assay on SNB-19 CNS was above 100 µM in each case.

As for `CC(=O)O[C@@H]1CC(C)C2CC2C2=C(C(O)OC2O)[C@@H]1C(C)CCC=C(C)C` (stereo partly specified), the TGI was found to be 34.2 µM in the assay on SF-539 CNS; 47.5 µM in the assay with M19-MEL melanoma; 71.2 µM in the assay with OVCAR-4 ovarian; 59.1 µM with RPMI-8226 leukemia; 38.3 µM in the assay with NCI-H460 lung; 35.9 µM with SN12C renal. Moreover, the TGI with SNB-19 CNS was 99.5 µM; in the assay with SNB-78 CNS it was 90.2 µM.

With `Cn1c2ccc([N+](=O)[O-])cc2c(=O)c2c(O)cc(O)cc21`, the TGI was 55.2 µM in the assay on SF-539 CNS; 55 µM with NCI/ADR-RES ovarian; above 100 µM in the assay with HS 578T breast; above 100 µM with OVCAR-4 ovarian; above 100 µM with RPMI-8226 leukemia; above 100 µM with NCI-H460 lung. The TGI in the assay with SN12C renal and in the assay with SNB-19 CNS was above 100 µM in each case.

(Values after PubChem BioAssay (NCI).)
